Results from patent publication US7659245B2, “Macrocylic inhibitors of hepatitis C virus” (Tibotec Pharmaceuticals Ltd, priority 2005, dated 2010).

Experiments:
[1] = test system: HCV replicons (Huh-7 luc/neo cells, NS3-NS5B regions of HCV type 1b); test: Replicon assay: inhibition of HCV RNA replication in Huh-Luc cells (luciferase read-out); format: cell-based; details: HCV type 1b replicon, luciferase activity after three days
Protocol: The in vitro antiviral activity against HCV of the compounds of formula (I) was tested in a cellular HCV replicon system based on Lohmann et al. (1999) Science 285:110-113, with the further modifications described by Krieger et al. (2001) Journal of Virology 75: 4614-4624 (incorporated herein by reference), which is further exemplified in the examples section. This model, while not a complete infection model for HCV, is widely accepted as the most robust and efficient model of autonomous HCV RNA replication currently available. […] It will be appreciated that it is important to distinguish between compounds that specifically interfere with HCV functions from those that exert cytotoxic or cytostatic effects in the HCV replicon model, and as a consequence cause a decrease in HCV RNA or linked reporter enzyme concentration. Assays are known in the field for the evaluation of cellular cytotoxicity based for example on the activity of mitochondrial enzymes using fluorogenic redox dyes such as resazurin. Furthermore, cellular counter screens exist for the evaluation of non-selective inhibition of linked reporter gene activity, such as firefly luciferase. Appropriate cell types can be equipped by stable transfection with a luciferase reporter gene whose expression is dependent on a constitutively active gene promoter, and such cells can be used as a counter-screen to eliminate non-selective inhibitors.
The compounds of formula (I) were examined for activity in the inhibition of HCV RNA replication in a cellular assay. […] The cellular assay was based on a bicistronic expression construct, as described by Lohmann et al. (1999) Science vol. 285 pp. 110-113 with modifications described by Krieger et al. (2001) Journal of Virology 75: 4614-4624, in a multi-target screening strategy. In essence, the method was as follows.
The assay utilized the stably transfected cell line Huh-7 luc/neo (hereafter referred to as Huh-Luc). This cell line harbors an RNA encoding a bicistronic expression construct comprising the wild type NS3-NS5B regions of HCV type 1b translated from an Internal Ribosome Entry Site (IRES) from encephalomyocarditis virus (EMCV), preceded by a reporter portion (FfL-luciferase), and a selectable marker portion (neo^R, neomycine phosphotransferase). The construct is bordered by 5′ and 3′ NTRs (non-translated regions) from HCV type 1b. Continued culture of the replicon cells in the presence of G418 (neo^R) is dependent on the replication of the HCV RNA. The stably transfected replicon cells that express HCV RNA, which replicates autonomously and to high levels, encoding inter alia luciferase, are used for screening the antiviral compounds.
The replicon cells were plated in 384 well plates in the presence of the test and control compounds which were added in various concentrations. Following an incubation of three days, HCV replication was measured by assaying luciferase activity (using standard luciferase assay substrates and reagents and a Perkin Elmer ViewLux™ ultraHTS microplate imager). Replicon cells in the control cultures have high luciferase expression in the absence of any inhibitor. The inhibitory activity of the compound on luciferase activity was monitored on the Huh-Luc cells, enabling a dose-response curve for each test compound. EC50 values were then calculated, which value represents the amount of the compound required to decrease by 50% the level of detected luciferase activity, or more specifically, the ability of the genetically linked HCV replicon RNA to replicate.

[2] = target: full-length hepatitis C NS3 protease enzyme (HCV NS3/4A protease complexes) (Hepatitis C virus genotype 1a, UniProt P27958); test: Inhibition assay (enzymatic assay) of HCV NS3/4A protease; format: biochemical; details: enzyme 1 nM, 25 μM NS4A cofactor, 0.5 μM depsipeptide substrate, 30° C., competitive model
full-length hepatitis C NS3 protease enzyme (HCV NS3/4A protease complexes), sequence (P27958 1027-1657, one chain of several): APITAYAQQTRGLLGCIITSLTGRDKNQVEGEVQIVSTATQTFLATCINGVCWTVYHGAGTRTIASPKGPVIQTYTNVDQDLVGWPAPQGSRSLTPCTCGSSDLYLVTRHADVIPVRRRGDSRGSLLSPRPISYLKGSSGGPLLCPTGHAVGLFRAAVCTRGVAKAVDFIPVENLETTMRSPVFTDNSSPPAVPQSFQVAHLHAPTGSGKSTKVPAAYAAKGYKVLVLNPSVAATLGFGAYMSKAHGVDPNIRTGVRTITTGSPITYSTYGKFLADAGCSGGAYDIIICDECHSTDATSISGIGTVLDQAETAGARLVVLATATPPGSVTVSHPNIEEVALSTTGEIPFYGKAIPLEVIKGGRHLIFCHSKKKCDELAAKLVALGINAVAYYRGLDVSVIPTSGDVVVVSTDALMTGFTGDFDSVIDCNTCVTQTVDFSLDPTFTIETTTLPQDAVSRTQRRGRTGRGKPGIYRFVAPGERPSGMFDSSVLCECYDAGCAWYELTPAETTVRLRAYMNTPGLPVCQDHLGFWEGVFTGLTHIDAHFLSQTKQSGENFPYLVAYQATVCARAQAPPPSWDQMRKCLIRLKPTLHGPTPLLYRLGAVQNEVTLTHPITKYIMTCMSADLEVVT
Protocol: The aim of this in vitro assay is to measure the inhibition of HCV NS3/4A protease complexes by the compounds of the present invention. This assay provides an indication of how effective compounds of the present invention would be in inhibiting HCV NS3/4A proteolytic activity.
The inhibition of full-length hepatitis C NS3 protease enzyme was measured essentially as described in Poliakov, 2002 Prot Expression & Purification 25 363 371. Briefly, the hydrolysis of a depsipeptide substrate, Ac-DED(Edans)EEAbuψ[COO]ASK(Dabcyl)-NH2 (AnaSpec, San José, USA), was measured spectrofluorometrically in the presence of a peptide cofactor, KKGSVVIVGRIVLSGK (Åke Engström, Department of Medical Biochemistry and Microbiology, Uppsala University, Sweden). [Landro, 1997 #Biochem 36 9340-9348]. The enzyme (1 nM) was incubated in 50 mM HEPES, pH 7.5, 10 mM DTT, 40% glycerol, 0.1% n-octyl-D-glucoside, with 25 μM NS4A cofactor and inhibitor at 30° C. for 10 min, whereupon the reaction was initiated by addition of 0.5 μM substrate. Inhibitors were dissolved in DMSO, sonicated for 30 sec. and vortexed. The solutions were stored at −20° C. between measurements.
The final concentration of DMSO in the assay sample was adjusted to 3.3%. The rate of hydrolysis was corrected for inner filter effects according to published procedures. [Liu, 1999 Analytical Biochemistry 267 331-335]. Ki values were estimated by non-linear regression analysis (GraFit, Erithacus Software, Staines, MX, UK), using a model for competitive inhibition and a fixed value for Km (0.15 μM). A minimum of two replicates was performed for all measurements.

Compound	EC50 ([1]; Hepatitis C virus, Huh-7, 72 h) [nM]	Ki [2] [nM]	EC50 [1] [nM]
COc1ccc2c(O[C@@H]3C[C@H]4C(=O)N[C@]5(C(=O)NS(=O)(=O)C6CC6)C[C@H]5/C=C\CCCCN(C)C(=O)N4C3)nc(-c3ccccc3)nc2c1 [Compound 53, Cyclopropanesulfonic acid [17-(7-methoxy-2-phenyl-quinazolin-4-yloxy)-13-methyl-2,14-dioxo-3,13,15-triaza-tricyclo[13.3.0.0*4,6*]octadec-7-ene-4-carbonyl]-amide]	0.5 to 199	0.1 to 4.9	
COc1ccc(-c2nc(O[C@@H]3C[C@H]4C(=O)N[C@]5(C(=O)NS(=O)(=O)C6CC6)C[C@H]5/C=C\CCCCN(C)C(=O)[C@@H]4C3)c3ccc(OC)c(C)c3n2)cc1 [Compound 138, Cyclopropanesulfonic acid {17-[7-methoxy-2-(4-methoxy-phenyl)-8-methyl-quinazolin-4-yloxy]-13-methyl-2,14-dioxo-3,13-diaza-tricyclo[13.3.0.0*4,6*]octadec-7-ene-4-carbonyl}-amide]	0.5 to 199	0.1 to 4.9	
COc1ccc2c(O[C@@H]3C[C@H]4C(=O)N[C@]5(C(=O)NS(=O)(=O)C6CC6)C[C@H]5/C=C\CCCCN(C)C(=O)N4C3)nc(-c3cccc(F)c3)nc2c1C [Compound 165, Cyclopropanesulfonic acid {17-[2-(3-fluoro-phenyl)-7-methoxy-8-methyl-quinazolin-4-yloxy]-13-methyl-2,14-dioxo-3,13,15-triaza-tricyclo[13.3.0.0*4,6*]octadec-7-ene-4-carbonyl}-amide]	0.5 to 199	0.1 to 4.9	
COc1ccc2c(O[C@@H]3C[C@H]4C(=O)N[C@]5(C(=O)NS(=O)(=O)C6CC6)C[C@H]5/C=C\CCCCN(C)C(=O)[C@@H]4C3)nc(-n3ccc(C(C)C)n3)nc2c1C [Compound 147, N-[17-[2-(3-isopropylpyrazol-1-yl)-7-methoxy-8-methylquinazolin-4-yloxy]-13-methyl-2,14-dioxo-3,13-diazatricyclo[13.3.0.0^4,6]octadec-7-ene-4-carbonyl](cyclo-propyl)sulfonamide]	0.5 to 199	0.1 to 4.9	
COc1ccc2c(O[C@@H]3C[C@H]4C(=O)N[C@]5(C(=O)NS(=O)(=O)C6CC6)C[C@H]5/C=C\CCCCN(C)C(=O)[C@@H]4C3)nc(-c3cc(F)cc(F)c3)nc2c1C [Compound 170, Cyclopropanesulfonic acid {17-[2-(3,5-difluoro-phenyl)-7-methoxy-8-methyl-quinazolin-4-yloxy]-13-methyl-2,14-dioxo-3,13-diaza-tricyclo[13.3.0.0*4,6*]octadec-7-ene-4-carbonyl}-amide]	0.5 to 199	5 to 99.9	
COc1ccc(-c2nc(O[C@@H]3C[C@H]4C(=O)N[C@]5(C(=O)NS(=O)(=O)C6CC6)C[C@H]5/C=C\CCCCN(C)C(=O)N4C3)c3ccc(OC)c(C)c3n2)cc1 [Compound 131, Cyclopropanesulfonic acid {17-[7-methoxy-2-(4-methoxy-phenyl)-8-methyl-quinazolin-4-yloxy]-13-methyl-2,14-dioxo-3,13,15-triaza-tricyclo[13.3.0.0*4,6*]-octadec-7-ene-4-carbonyl}-amide]	0.5 to 199	0.1 to 4.9	
COc1ccc2c(O[C@@H]3C[C@H]4C(=O)N[C@]5(C(=O)NS(=O)(=O)C6CC6)C[C@H]5/C=C\CCCCCNC(=O)N4C3)nc(-c3ccccc3)nc2c1C [Compound 174, Cyclopropanesulfonic acid [18-(7-methoxy-8-methyl-2-phenyl-quinazolin-4-yloxy)-2,15-dioxo-3,14,16-triaza-tricyclo[14.3.0.0*4,6*]nonadec-7-ene-4-carbonyl]-amide]	0.5 to 199	0.1 to 4.9	
CN1CCCC/C=C\[C@@H]2C[C@@]2(C(=O)NS(=O)(=O)C2CC2)NC(=O)[C@@H]2C[C@@H](Oc3nc(-c4ccccc4)nc4ccccc34)C[C@H]2C1=O [Compound 31, Cyclopropanesulfonic acid [13-methyl-2,14-dioxo-17-(2-phenylquinazolin-4-yl-oxy)3,13-diaza-tricyclo[13.3.0.0*4,6*]octadec-7-ene-4-carbonyl]amide]	0.5 to 199	0.1 to 4.9	
Cyclopropanesulfonic acid {13-methyl-2,14-dioxo-17-[2-(5H-pyrazol-1-yl)-quinazolin-4-yloxy]-3,13-diaza-tricyclo[13.3.0.0*4,6*]octadec-7-ene-4-carbonyl-amide [Compound 70]		> 1000	> 10000
COc1ccc2c(O[C@@H]3C[C@H]4C(=O)N[C@]5(C(=O)NS(=O)(=O)C6CC6)C[C@H]5/C=C\CCCCN(C)C(=O)N4C3)nc(-c3ccccc3)nc2c1C [Compound 94, Cyclopropanesulfonic acid [17-(7-methoxy-8-methyl-2-phenyl-quinazolin-4-yloxy)-13-methyl-2,14-dioxo-3,13,15-triaza-tricyclo[13.3.0.0*4,6*]octadec-7-ene-4-carbonyl]-amide]	0.5 to 199	0.1 to 4.9	
CN1CCN(c2nc(O[C@@H]3C[C@H]4C(=O)N[C@]5(C(=O)NS(=O)(=O)C6CC6)C[C@H]5/C=C\CCCCN(C)C(=O)[C@@H]4C3)c3ccccc3n2)CC1 [Compound 34, Cyclopropanesulfonic acid {13-methyl-17-[2-(4-methyl-piperazin-1-yl)quinazolin-4-yloxy]-2,14-dioxo-3,13-diaza-tricyclo[13.3.0.0*4,6*]octadec-7-ene4-carbonyl}-amide]	200 to 990	5 to 99.9	
COc1ccc2c(O[C@@H]3C[C@H]4C(=O)N[C@]5(C(=O)NS(=O)(=O)C6CC6)C[C@H]5/C=C\CCCCN(C)C(=O)[C@@H]4C3)nc(-c3ccccc3)nc2c1C [Compound 89, Cyclopropanesulfonic acid [17-(7-methoxy-8-methyl-2-phenyl-quinazolin-4-yloxy)-13-methyl-2,14-dioxo-3,13-diaza-tricyclo[13.3.0.0*4,6*]octadec-7-ene-4-carbnyl]-amide]	0.5 to 199	0.1 to 4.9	
COc1cc2nc(-c3ccccc3)nc(O[C@@H]3C[C@H]4C(=O)N[C@]5(C(=O)NS(=O)(=O)C6CC6)C[C@H]5/C=C\CCCCN(C)C(=O)N4C3)c2cc1C [Compound 121, Cyclopropanesulfonic acid [17-(7-methoxy-6-methyl-2-phenyl-quinazolin-4-yloxy)-13-methyl-2,14-dioxo-3,13,15-triaza-tricyclo[13.3.0.0*4,6*]octadec-7-ene-4-carbonyl]-amide]	0.5 to 199	0.1 to 4.9	
